{"source": "patent US8355136B2", "about": "“Sub-micron surface plasmon resonance sensor systems” (Indiana University Research and Technology Corporation, priority 2005, dated 2013)", "key": {"[1]": {"target": "T1, GOx (Aspergillus niger, UniProt P13006)", "T1 sequence (P13006 23-605 limits assumed)": "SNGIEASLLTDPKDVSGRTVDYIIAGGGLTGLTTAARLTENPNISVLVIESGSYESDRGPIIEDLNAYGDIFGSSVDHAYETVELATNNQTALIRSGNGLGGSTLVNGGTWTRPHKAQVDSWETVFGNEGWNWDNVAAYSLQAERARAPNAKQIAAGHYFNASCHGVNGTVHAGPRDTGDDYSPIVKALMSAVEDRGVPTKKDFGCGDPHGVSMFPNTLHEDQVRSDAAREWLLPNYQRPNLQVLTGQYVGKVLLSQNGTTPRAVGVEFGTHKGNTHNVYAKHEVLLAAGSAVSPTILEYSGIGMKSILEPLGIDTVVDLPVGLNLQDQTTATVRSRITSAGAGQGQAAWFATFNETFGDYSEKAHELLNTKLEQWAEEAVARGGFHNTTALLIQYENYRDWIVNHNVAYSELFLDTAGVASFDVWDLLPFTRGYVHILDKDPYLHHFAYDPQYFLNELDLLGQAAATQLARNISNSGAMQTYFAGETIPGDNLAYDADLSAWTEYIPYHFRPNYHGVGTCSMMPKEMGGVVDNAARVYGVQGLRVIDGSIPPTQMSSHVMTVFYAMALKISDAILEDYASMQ", "conditions": "for relative rate ± error / Ssubstrate − SL-Glu / Isubstrate / S/N / signal (Ibaseline − Isubstrate): 100 mM in PBS, 660 nm; for relative rate ± error: from exponential fits to the time series; for Ssubstrate − SL-Glu: signal minus L-Glu reference signal; for Isubstrate / S/N / signal (Ibaseline − Isubstrate): single MSPRS", "experimental": "The resonance measured at 660 nm wavelength was used to monitor reaction kinetics because it had the least overlap with neighboring peaks and because it lay in the red-NIR (near infra-red) optical window of tissue transparency, which allows use of MSPRSs to study complex media like blood, blood plasma and serum.\nAfter depositing the cross-linker, we rinsed the end of the tubing for 10 s with DI-water using a 1 mL syringe. […] After the MSPR sensor signal reached a stable plateau indicating reaction saturation, the sensors were rinsed with DI-water until no further change in signal was recorded."}, "[2]": {"target": "T1, GOx", "assay": "MSPR sensor monitoring of Gox enzymatic activity under substrate flow", "conditions": "for enzymatic activity response of Gox: flow of substrate, concentration not given"}, "[3]": {"target": "T1, GOx", "conditions": "cited from earlier work"}, "[4]": {"assay": "MSPR sensor, monolayer formation / adsorption kinetics on the gold surface"}, "[5]": {"assay": "Biacore 3000 bare-gold-surface SPR chip, gold-DTSSP binding"}, "[6]": {"conditions": "Biacore 3000"}}, "note": "Where two headings read alike, the source gives them in different places.", "data": [{"molecule": "O=CC[C@@H](O)[C@H](O)[C@H](O)CO", "note": "[2Do-Glu, 2-Deoxy-D-Glucose]", "values": [{"measurement": "relative rate ± error", "setting": "[1]", "value": "0.06 ± 65", "unit": "%"}, {"measurement": "Ssubstrate − SL-Glu", "setting": "[1]", "value": 14, "unit": "counts/s"}, {"measurement": "Isubstrate", "setting": "[1]", "value": 22190, "unit": "counts/s"}, {"measurement": "S/N", "setting": "[1]", "value": "57 (17.5 dB)"}, {"measurement": "signal (Ibaseline − Isubstrate)", "setting": "[1]", "value": 535, "unit": "counts/s"}, {"measurement": "enzymatic activity response of Gox", "setting": "[2]", "value": "no enzymatic activity response"}, {"measurement": "reaction rate with GOx as % of the βD-Glu rate", "setting": "[3]", "value": 20, "unit": "%"}]}, {"molecule": "OC[C@H]1OC(O)[C@@H](O)[C@@H](O)[C@@H]1O", "note": "(stereo partly drawn) [D-Man]", "values": [{"measurement": "relative rate ± error", "setting": "[1]", "value": "0.24 ± 28", "unit": "%"}, {"measurement": "Ssubstrate − SL-Glu", "setting": "[1]", "value": 58, "unit": "counts/s"}, {"measurement": "Isubstrate", "setting": "[1]", "value": 22168, "unit": "counts/s"}, {"measurement": "S/N", "setting": "[1]", "value": "36 (15.5 dB)"}, {"measurement": "signal (Ibaseline − Isubstrate)", "setting": "[1]", "value": 579, "unit": "counts/s"}, {"measurement": "reaction rate with GOx as % of the βD-Glu rate", "setting": "[3]", "value": 1, "unit": "%"}]}, {"molecule": "O=C(CCSSCCC(=O)ON1C(=O)CC(S(=O)(=O)O)C1=O)ON1C(=O)CC(S(=O)(=O)O)C1=O", "note": "(centres unmarked) [DTSSP]", "values": [{"measurement": "time constant of monolayer formation", "setting": "[4]; Example 5, phosphate buffer pH 5.8 and DI water", "value": "105 ± 8", "unit": "s"}, {"measurement": "reaction time, gold-DTSSP binding", "setting": "[4]; Example 6, MSPR sensor, 660 nm, exponential fit", "value": "209 ± 7", "unit": "s"}, {"measurement": "gold-DTSSP reaction time longer on MSPR sensor than on Biacore", "setting": "[4]; MSPR sensor versus Biacore 3000", "value": "ca. 12%"}, {"measurement": "decrease of MSPR sensor-emitted intensity at 660 nm", "setting": "[4]; saturated gold-DTSSP reaction, from water baseline", "value": "1,481 counts/s"}, {"measurement": "SPR binding signal", "setting": "[5]", "value": 643, "unit": "RU"}, {"measurement": "reaction time, gold-DTSSP binding", "setting": "[5]; exponential fitting", "value": "184 ± 3", "unit": "s"}]}, {"molecule": "O=C[C@@H](O)[C@H](O)[C@@H](O)[C@@H](O)CO", "note": "[L-Glu, L-Glucose]", "values": [{"measurement": "relative rate ± error", "setting": "[1]", "value": "0.00 ± 0", "unit": "%"}, {"measurement": "Ssubstrate − SL-Glu", "setting": "[1]", "value": 0, "unit": "counts/s"}, {"measurement": "Isubstrate", "setting": "[1]", "value": 22236, "unit": "counts/s"}, {"measurement": "S/N", "setting": "[1]", "value": "21 (13.2 dB)"}, {"measurement": "signal (Ibaseline − Isubstrate)", "setting": "[1]", "value": 521, "unit": "counts/s"}, {"measurement": "interaction between substrate and sensor", "setting": "[1]; wash-in and wash-out, PBS baseline", "value": "absence of both specific and non-specific interactions"}, {"measurement": "enzymatic activity response of Gox", "setting": "[2]", "value": "no enzymatic activity response"}, {"measurement": "reaction rate with GOx as % of the βD-Glu rate", "setting": "[3]", "value": 0, "unit": "%"}]}, {"molecule": "CCCCCCCCCCCCS", "note": "[dodecanethiol]", "values": [{"measurement": "time constant for the film formation", "setting": "[4]; 100 mM concentration, from ethanol, first order exponential decay fit", "value": "382 ± 7", "unit": "s"}]}, {"molecule": "OC[C@H]1O[C@H](O)[C@H](O)[C@@H](O)[C@@H]1O", "note": "[αD-Glu, α-D-glucose]", "values": [{"measurement": "reaction rate with GOx as % of the βD-Glu rate", "setting": "[3]", "value": 0.64, "unit": "%"}]}, {"molecule": "OC[C@H]1O[C@@H](O)[C@H](O)[C@@H](O)[C@@H]1O", "note": "[β-D+Glucose]", "values": [{"measurement": "enzymatic activity of Gox detected", "setting": "[2]; 1 mM in PBS 1×", "value": "the response was much slower"}, {"measurement": "enzymatic activity of Gox detected", "setting": "[2]; 100 mM in PBS 1×", "value": "able to detect the enzymatic activity"}]}, {"molecule": "glucose oxidase [GOx]", "values": [{"measurement": "decrease of output signal on binding", "setting": "6.25 μM in DI-water, from DTSSP baseline", "value": "1,424 counts/s"}, {"measurement": "reaction time, DTSSP-GOx binding", "setting": "Example 6, MSPR sensor, exponential fit", "value": "211 ± 4", "unit": "s"}, {"measurement": "SPR binding signal", "setting": "[6]", "value": 553, "unit": "RU"}, {"measurement": "reaction time, DTSSP-GOx binding", "setting": "[6]; exponential fitting", "value": "211 ± 4", "unit": "s"}]}]}
